This is an account of results in US10070660B2, “Pet food palatability with antimicrobial properties based on organic acids” (KEMIN INDUSTRIES, INC., priority 2012, dated 2018).

Test [1] deals with Salmonella spp. Briefly: Cat palatant solutions (15% w/v) challenged with liquid Salmonella spp. inoculum. The class given is cell-based, Salmonella enterica. The protocol: In the Phase 3 experiment described below, solutions (15% w/v) of cat palatant samples were challenged with a “Low” concentration (1,000 CFU/ml) and a “High” concentration (1,000,000 CFU/ml) of a liquid Salmonella spp. inoculum in an effort to evaluate the antimicrobial effect of each palatant. Salmonella was enumerated from each palatant at three time points after challenge; immediately, 24 hours and 6 days.
Preparation of palatant samples. Four samples of a cat palatant formulated with varying levels of fumaric acid (Table 6) were aseptically weighed in duplicate sterile 50 ml conical test tubes. To each test tube, 10 ml of sterile deionized water was added and mixed by vortex. The pH of a 5% (w/v) solution of each palatant was also measured (Table 6).
Five Salmonella enterica serovars [S. enterica (ATTC® 51741™), Montevideo (ATCC® 8387™), Typhimurium (ATCC® 14028™), Senftenberg (ATCC® 43845™), Schwarzengrund (4012)] were kept as frozen stocks at −70° C. in Bacto™ Tryptic Soy Broth (TSB) with 20% (w/v) glycerol. One vial of each culture was thawed at room temperature and 0.100 ml was transferred to […] (pH 7.2) containing (g/l) pancreatic digest of casein: 17, enzymatic digest of soybean meal: 3, sodium chloride, 5, dipotassium phosphate: 2.5, dextrose, 2.5, then incubated at 37° C. for 24 hours on a platform shaker set at 190 rpm. One ml of each overnight culture was diluted in 9 ml 0.85% saline and enumerated using a Petroff Hauser Counting Chamber. Each culture was further diluted in 0.85% saline to obtain two concentrations of inoculum; 100,000 CFU/ml (Low) and 100,000,000 CFU/ml (High).
One hundred μl of each Low and High diluted Salmonella inoculum was pipetted into one of each duplicate palatant tubes to obtain one tube with 1,000 CFU/ml (Low) and one tube with […] (High). Samples were analyzed immediately after challenging, 24 hours and 6 days after storage at 25° C.
Each tube of palatant was vortexed prior to serially diluting. Dilutions were pipetted into sterile petri plates. The plates were poured with tempered (45° C.) XLD agar. After solidification, plates were inverted and placed in an incubator (37° C.). Colonies were counted and CFU/ml was calculated. Detection limit of the method was 1 CFU/ml.

Test [2] concerns Salmonella enterica subsp. enterica (ATCC 51741). Briefly: Microplate assay, inhibition of S. enterica growth in modified TSB (OD600 over 48 h). The class given is cell-based. The note with it: microtiter plate, 0.025-0.100% in TSB, 37 C. The protocol:
FIG. 1 is a chart of the effect of fumaric acid (0%; 0.025%; 0.050%; 0.100%) on the growth of Salmonella enterica ser. Infantis in modified tryptic soy broth (pH 4.93) for 48 hours at 37° C.
Salmonella enterica subsp. enterica (ATCC® 51741™), was obtained from the American Type Culture Collection (ATCC®) and kept as a frozen stock at −70° C. in Bacto™ Tryptic Soy Broth (TSB) with 20% (w/v) glycerol. One vial of the frozen stock culture was thawed at room temperature and 0.100 mL was transferred to 100 mL TSB (pH 7.2) containing (g/l) pancreatic digest of casein: 17, enzymatic digest of soybean meal: 3, sodium chloride, 5, dipotassium phosphate: 2.5, dextrose, 2.5, then incubated at 37° C. for 24 hours on a platform shaker set at 190 rpm. […]
A 0.20% stock solution of fumaric acid was made by dissolving 0.100 g (w/v) fumaric acid in 50 ml sterile deionized water in a flask. […] The pH of each fumaric-TSB solution was measured (Table 1). […] The microplate was placed in a Versamax Microplate Reader (Molecular Devices) (37° C.) with wavelength set to 600 nm. The optical density (OD600) was read every 2 hours for 48 hours.
Solutions of fumaric acid at three different concentrations (Table 3) were evaluated for inhibition of S. enterica growth in vitro using a microplate assay and measuring optical density over time (FIG. 1).

Take `O=C(O)/C=C/C(=O)O` [Fumaric Acid, fumaric acid]: the Salmonella counts in test [1] (High inoculation (1,000,000 CFU/ml), 14% fumaric, day 0) is recorded as below 1 CFU/ml; in test [1] (High inoculation, 14% fumaric, day 1) it was below 1 CFU/ml; in test [1] (High inoculation, 14% fumaric, day 6), below 1 CFU/ml; in test [1] (High inoculation, 20% fumaric, day 0), below 1 CFU/ml; in test [1] (High inoculation, 20% fumaric, day 1), below 1 CFU/ml; in test [1] (High inoculation, 20% fumaric, day 6), below 1 CFU/ml. For the same compound, the Salmonella counts was below 1 CFU/ml in test [1] (High inoculation, 27% fumaric, day 0); below 1 CFU/ml in test [1] (High inoculation, 27% fumaric, day 1); below 1 CFU/ml in test [1] (High inoculation, 27% fumaric, day 6); below 1 CFU/ml in test [1] (Low inoculation (1,000 CFU/ml), 14% fumaric in palatant, day 0); below 1 CFU/ml in test [1] (Low inoculation, 14% fumaric, day 1); below 1 CFU/ml in test [1] (Low inoculation, 14% fumaric, day 6). Moreover, the Salmonella counts is below 1 CFU/ml in test [1] (Low inoculation, 20% fumaric, day 0); below 1 CFU/ml in test [1] (Low inoculation, 20% fumaric, day 1); below 1 CFU/ml in test [1] (Low inoculation, 20% fumaric, day 6); below 1 CFU/ml in test [1] (Low inoculation, 27% fumaric, day 0); below 1 CFU/ml in test [1] (Low inoculation, 27% fumaric, day 1); below 1 CFU/ml in test [1] (Low inoculation, 27% fumaric, day 6). For the same compound, the “inhibition of S. enterica growth in vitro (in words)” value in test [2] is listed as “effective antimicrobial agent”.
